ChEMBL document CHEMBL1201862, “PubChem BioAssay data set” (2004)
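1) Cells in 96-well plates. 2) Compound, 48 h, 5 concentrations. 3) Linear interpolation between surrounding doses. 4) Unreached endpoint = highest concentration. Abbreviation: GI50, concentration required for 50% inhibition of growth.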 Activity calls are given as the source filed them. Rule as the data show it: active = GI50 up to about 1.1 µM and inactive = higher.

Key:
Assay in all cases: growth of human tumour cells (NCI), 48 h
MOLT-4 = test system: MOLT-4
K562 = test system: K562
BT-549 = test system: BT-549
M14 = test system: M14
OVCAR-3 = test system: OVCAR-3
ACHN = test system: ACHN
HT-29 = test system: HT-29
HCT-15 = test system: HCT-15
SF-539 = test system: SF-539
MCF7 = test system: MCF7
CCRF-CEM = test system: CCRF-CEM
T47D = test system: T47D
SN12C = test system: SN12C
SW-620 = test system: SW-620
A549 = test system: A549
UACC-257 = test system: UACC-257
A498 = test system: A498
SK-MEL-28 = test system: SK-MEL-28
OVCAR-4 = test system: OVCAR-4

Row | SMILES | GI50 (MOLT-4) | GI50 (K562) | GI50 (BT-549) | GI50 (M14) | GI50 (OVCAR-3) | GI50 (ACHN) | GI50 (HT-29) | GI50 (HCT-15) | GI50 (SF-539) | GI50 (MCF7) | GI50 (CCRF-CEM) | GI50 (T47D) | GI50 (SN12C) | GI50 (SW-620) | GI50 (A549) | GI50 (UACC-257) | GI50 (A498) | GI50 (SK-MEL-28) | GI50 (OVCAR-4)
1 | Cc1ccc(O)c(C2=NNC(c3cccc(Br)c3)C2)c1 (stereo not given) | 32.8 µM (inactive) | 38 µM (inactive) | > 100 µM (inactive) | > 100 µM (inactive) | 62.2 µM (inactive) | 34.3 µM (inactive) | 64.1 µM (inactive) | 11.5 µM | 74.1 µM (inactive) | 33.8 µM (inactive) | 29.3 µM (inactive) | 35.6 µM (inactive) | 52.6 µM (inactive) | 67.1 µM (inactive) | 44.5 µM (inactive) | 48.9 µM (inactive) |  |  | 
2 | COc1ccc2c(c1)/C(=C\c1c(C)nc3n1CCS3)C(=O)N2 | 32.4 µM (inactive) | 10.3 µM (inactive) | 21.1 µM (inactive) | 23 µM (inactive) | 21.7 µM (inactive) | 40.5 µM (inactive) | 12.6 µM (inactive) | 9.4 µM | 18.3 µM (inactive) | 27.6 µM (inactive) | 24.7 µM (inactive) | 27.7 µM (inactive) | 26.5 µM (inactive) | 9.79 µM (inactive) | 24.1 µM (inactive) | 47.6 µM (inactive) | 17.8 µM (inactive) | 46.8 µM (inactive) | 
3 | CO[C@H]1C[C@H](O[C@H]2CC[C@]3(C=O)[C@H]4CC[C@]5(C)[C@@H](C6=CC(=O)OC6)CC[C@]5(O)[C@@H]4CC[C@]3(O)C2)O[C@H](C)[C@H]1O[C@@H]1O[C@H](CO)[C@@H](O)[C@H](O)[C@H]1O | 5.42e-06 µM (active) | > 0.01 µM (active) | 1.22e-05 µM (active) | 4.73e-05 µM (active) | 7.67e-06 µM (active) | 9.16e-06 µM (active) | 3.03e-05 µM (active) | 3.94e-05 µM | 2.03e-05 µM (active) |  | > 0.01 µM (active) | 5.53e-05 µM (active) | 1.05e-05 µM (active) | 3.16e-05 µM (active) | 4.46e-06 µM (active) | 8.22e-05 µM (active) | 5.81e-05 µM (active) | 6.43e-05 µM (active) | 8.63e-06 µM (active)
4 | O=C(c1ccc(Br)cc1)n1c2ccc(Br)cc2c2nc3ccccc3nc21 | 43.9 µM (inactive) | > 100 µM (inactive) | > 100 µM (inactive) | > 100 µM (inactive) | > 100 µM (inactive) | > 100 µM (inactive) | > 100 µM (inactive) | > 100 µM | > 100 µM (inactive) | > 100 µM (inactive) | > 100 µM (inactive) | > 100 µM (inactive) | > 100 µM (inactive) | > 100 µM (inactive) |  | > 100 µM (inactive) |  | > 100 µM (inactive) | > 100 µM (inactive)
5 | NC(=O)c1nnn(-c2ccccc2)c1O | > 100 µM (inactive) | > 100 µM (inactive) | > 100 µM (inactive) | > 100 µM (inactive) | > 100 µM (inactive) | > 100 µM (inactive) | > 100 µM (inactive) | > 100 µM | > 100 µM (inactive) | > 100 µM (inactive) | > 100 µM (inactive) | > 100 µM (inactive) | > 100 µM (inactive) | > 100 µM (inactive) | > 100 µM (inactive) | > 100 µM (inactive) | > 100 µM (inactive) | > 100 µM (inactive) | 
6 | COC(=O)NC(Nc1ccc(C)cc1)(C(F)(F)F)C(F)(F)F | > 100 µM (inactive) | > 100 µM (inactive) | > 100 µM (inactive) | > 100 µM (inactive) | > 100 µM (inactive) | > 100 µM (inactive) | > 100 µM (inactive) | > 100 µM | > 100 µM (inactive) | > 100 µM (inactive) | > 100 µM (inactive) | > 100 µM (inactive) | > 100 µM (inactive) | > 100 µM (inactive) | > 100 µM (inactive) | > 100 µM (inactive) | > 100 µM (inactive) | > 100 µM (inactive) | 
7 | Cn1c(=O)n2n(c1=O)C1C(=CC2)C2C=CC1n1c(=O)n(C)c(=O)n12 (stereo not given) | > 100 µM (inactive) | > 100 µM (inactive) | > 100 µM (inactive) | > 100 µM (inactive) | > 100 µM (inactive) | > 100 µM (inactive) | > 100 µM (inactive) | > 100 µM | > 100 µM (inactive) |  | > 100 µM (inactive) | > 100 µM (inactive) | > 100 µM (inactive) | > 100 µM (inactive) | > 100 µM (inactive) | > 100 µM (inactive) | > 100 µM (inactive) | > 100 µM (inactive) | 
8 | CC1OC23CCCCC2C(C#N)(C#N)C1(C#N)C(=N)O3 (stereo not given) | 23.2 µM (inactive) | 13.7 µM (inactive) | 17.7 µM (inactive) | 20.1 µM (inactive) | 17.7 µM (inactive) | 19.9 µM (inactive) | 27.1 µM (inactive) | 15.3 µM | 21.8 µM (inactive) | 20.7 µM (inactive) | 5.94 µM (inactive) | 18.7 µM (inactive) | 15.3 µM (inactive) | 8.75 µM (inactive) | 96.2 µM (inactive) | 18 µM (inactive) | 27.2 µM (inactive) | 21.7 µM (inactive) | 
9 | COc1ccccc1C1Nn2c(nc3ccccc3c2=O)N1c1ccc(C)cc1 (stereo not given) | 1.47 µM (inactive) | 7.83 µM (inactive) | 21.8 µM (inactive) | 10.5 µM (inactive) | 4.65 µM (inactive) | 4 µM (inactive) | 7.78 µM (inactive) | 3.49 µM | 3.51 µM (inactive) | 6.49 µM (inactive) | 1.82 µM (inactive) | 4.82 µM (inactive) | 5.87 µM (inactive) | 5.28 µM (inactive) | 6.19 µM (inactive) | 16.3 µM (inactive) |  | 5.94 µM (inactive) | 3.08 µM (inactive)
10 | Nc1cc(OCc2ccccc2)c(OCc2ccccc2)cc1C=O | 18.6 µM (inactive) | 44.4 µM (inactive) | 14.5 µM (inactive) |  |  | 26 µM (inactive) | 22.9 µM (inactive) | 19.8 µM | 5.83 µM (inactive) | 36.7 µM (inactive) | 22.3 µM (inactive) | 21.1 µM (inactive) | 28.1 µM (inactive) | 46.2 µM (inactive) | 23.8 µM (inactive) | 85.9 µM (inactive) | 11.6 µM (inactive) | 42.1 µM (inactive) | 
11 | CC#C[C@]1(O)CCC2[C@@H]3CCC4=CC(=O)CCC4=C3[C@@H](c3ccc(N(C)C)cc3)C[C@@]21C (stereo not given in full) |  | 20.9 µM (inactive) | 16.6 µM (inactive) | 13.8 µM (inactive) | 8.28 µM (inactive) | 18.7 µM (inactive) | 12.9 µM (inactive) | 12.3 µM | 12.6 µM (inactive) | 5.27 µM (inactive) | 9.75 µM (inactive) | 6.84 µM (inactive) | 21.8 µM (inactive) | 13.3 µM (inactive) | 10.2 µM (inactive) | 13.2 µM (inactive) |  | 14.4 µM (inactive) | 6.37 µM (inactive)
12 | CSc1nc2c(c(N(C)C)n1)C=Nn1c(nc3ccccc31)S2 | > 100 µM (inactive) | > 100 µM (inactive) | 95.9 µM (inactive) | > 100 µM (inactive) | > 100 µM (inactive) | 61.2 µM (inactive) | > 100 µM (inactive) | > 100 µM |  |  |  | 64.1 µM (inactive) | > 100 µM (inactive) | > 100 µM (inactive) | 69 µM (inactive) | 99.1 µM (inactive) | > 100 µM (inactive) | > 100 µM (inactive) | 81.8 µM (inactive)
13 | Cn1c(N)nc(-c2ccc(Cl)cc2)c1SSc1c(-c2ccc(Cl)cc2)nc(N)n1C | 5.25 µM (inactive) | 2.36 µM (inactive) | 2.58 µM (inactive) | 2.12 µM (inactive) | 1.82 µM (inactive) | 2.38 µM (inactive) | 2.3 µM (inactive) | 1.77 µM | 1.71 µM (inactive) |  | 2.44 µM (inactive) | 2.28 µM (inactive) | 3.42 µM (inactive) | 2.07 µM (inactive) | 12.8 µM (inactive) | 2.04 µM (inactive) | 14.3 µM (inactive) | 2.02 µM (inactive) | 1.75 µM (inactive)
14 | CC(C)(C)OC(=O)[C@@H]1CCC(=S)N1Cc1ccccc1 | 93.1 µM (inactive) | > 100 µM (inactive) | 71.8 µM (inactive) | > 100 µM (inactive) | > 100 µM (inactive) | > 100 µM (inactive) |  | > 100 µM | > 100 µM (inactive) | > 100 µM (inactive) | > 100 µM (inactive) |  | > 100 µM (inactive) | > 100 µM (inactive) | > 100 µM (inactive) | > 100 µM (inactive) | > 100 µM (inactive) | > 100 µM (inactive) | > 100 µM (inactive)
15 | N=C(N)NS(=O)(=O)c1ccc(Nc2c3ccccc3nc3ccc(C(=O)Nc4ccc(S(N)(=O)=O)cc4)cc23)cc1 | > 100 µM (inactive) | > 100 µM (inactive) | > 100 µM (inactive) | > 100 µM (inactive) | > 100 µM (inactive) | > 100 µM (inactive) | > 100 µM (inactive) | > 100 µM | > 100 µM (inactive) | > 100 µM (inactive) | > 100 µM (inactive) | > 100 µM (inactive) | > 100 µM (inactive) | > 100 µM (inactive) | > 100 µM (inactive) | > 100 µM (inactive) |  | > 100 µM (inactive) | > 100 µM (inactive)
16 | S=C1N(/N=C/c2c3ccccc3cc3ccccc23)C(=N\c2ccccc2)/C(=N/c2ccccc2)N1c1ccccc1 | > 100 µM (inactive) | > 100 µM (inactive) | > 100 µM (inactive) | > 100 µM (inactive) | > 100 µM (inactive) |  | > 100 µM (inactive) | > 100 µM | > 100 µM (inactive) | > 100 µM (inactive) |  | > 100 µM (inactive) | > 100 µM (inactive) | > 100 µM (inactive) | > 100 µM (inactive) | > 100 µM (inactive) |  | > 100 µM (inactive) | 
